Values quoted from earlier work as cited in patent EP3072529B1, “COMPOSITION COMPRISING VEMURAFENIB AND HPMC-AS” (ratiopharm GmbH, priority 2015, dated 2016).

Settings: reported

Compound: CCCS(=O)(=O)Nc1ccc(F)c(C(=O)c2c[nH]c3ncc(-c4ccc(Cl)cc4)cc23)c1F [Vemurafenib base, propane-1-sulfonic acid {3-[5-(4-chlorophenyl)-1H-pyrrolo[2,3-b]pyridine-3-carbonyl]-2,4-difluorophenyl}-amide]
- solubility in aqueous and physiological solvents: practically insoluble
